Measurements as given in US9193731B2, “Antimicrobial compounds and methods of making and using the same” (Melinta Therapeutics, Inc., priority 2009, dated 2015).

Tested on: Escherichia coli strain ATCC25922
Assay: standard microdilution assay to determine minimum inhibitory concentrations (MICs)
Assay type: cell-based
Details: Escherichia coli strain ATCC25922, microdilution
Procedure, shortened: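 Broth microdilution MIC against E. coli ATCC25922, following CLSI protocols, typically in a 100 microliter final volume. Results reported as +/− relative to a 16 micrograms/ml cutoff.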

Row | Structure (SMILES) | E. coli ATCC25922 MIC
1 | CNCCN1CCCC(c2cc3cn(-c4ccc(CNCCCNC(=N)N)cc4)c(=O)nc3[nH]2)C1 (centres unmarked) [Compound 2042a] | + (a “+” indicates that the compound has an MIC value of 16 micrograms/ml or less)
2 | N=C(N)NCCCNCc1ccc(-n2cc3cc(-c4cc(C=CCCN)cc(OC(F)(F)F)c4)[nH]c3nc2=O)cc1 [Compound 2045a] | + (a “+” indicates that the compound has an MIC value of 16 micrograms/ml or less)
3 | N=C(N)NCCCNCc1ccc(-n2cc3cc(-c4ccc(S(=O)(=O)N(Cc5csc(-c6ccc(C(F)(F)F)cc6)n5)C5CCNCC5)cc4)[nH]c3nc2=O)cc1 [Compound 786] | + (a “+” indicates that the compound has an MIC value of 16 micrograms/ml or less)
4 | N=C(N)NCCCNCc1ccc(-n2cc3cc(-c4cc(CCO)cc(OCC(F)CN)c4)[nH]c3nc2=O)cc1 (centres unmarked) [Compound 2004a] | − (a “−” indicates that the compound has an MIC value greater than 16 micrograms/ml)
5 | N=C(N)NCCCNCc1ccc(-n2cc3cc(-c4ccc(S(=O)(=O)N(CCCc5cc(-c6ccccc6)n[nH]5)C5CCNCC5)cc4)[nH]c3nc2=O)cc1 [Compound 1175] | + (a “+” indicates that the compound has an MIC value of 16 micrograms/ml or less)
6 | N=C(N)NCCCNCc1ccc(-n2cc3cc(-c4cc(OC(F)(F)F)cc([S+]([O-])CCCN)c4)[nH]c3nc2=O)cc1 (centres unmarked) [Compound 2076a] | + (a “+” indicates that the compound has an MIC value of 16 micrograms/ml or less)
7 | N=C(N)NCCCNCc1ccc(-n2cc3cc(-c4ccc(S(=O)(=O)N(Cc5cc(OC(F)(F)F)ccc5F)C5CCOCC5)cc4)[nH]c3nc2=O)cc1 [Compound 879] | + (a “+” indicates that the compound has an MIC value of 16 micrograms/ml or less)
8 | NC(N)=NCCCNCc1ccc(-n2cc3cc(-c4cccc(S(=O)(=O)N(CCn5cccc5)C5CCNCC5)c4)[nH]c3nc2=O)cc1 [Compound 1227] | + (a “+” indicates that the compound has an MIC value of 16 micrograms/ml or less)
9 | N=C(N)NCCCNCc1ccc(-n2cc3cc(-c4ccc(F)c(CCCCN)c4)[nH]c3nc2=O)cc1 [Compound 2071a] | + (a “+” indicates that the compound has an MIC value of 16 micrograms/ml or less)
10 | NCCCNCc1ccc(-n2cc3cc(-c4cc(CN5CCS(=O)(=O)CC5)cc(N5CCNCC5)c4)[nH]c3nc2=O)cc1 [Compound 914] | − (a “−” indicates that the compound has an MIC value greater than 16 micrograms/ml)
11 | N=C(N)NCCCNCc1ccc(-n2cc3cc(-c4cc(OCCCN)cc(N5CCNCC5)c4)[nH]c3nc2=O)cc1 [Compound 2010a] | + (a “+” indicates that the compound has an MIC value of 16 micrograms/ml or less)
12 | NCc1ccc(-n2cc3cc(-c4ccc(S(=O)(=O)N(CCCn5ccc(C(F)(F)F)n5)C5CCNCC5)cc4)[nH]c3nc2=O)cc1 [Compound 1002] | − (a “−” indicates that the compound has an MIC value greater than 16 micrograms/ml)
13 | N=C(N)NCCCNCc1ccc(-n2cc3cc(-c4ccc(S(=O)(=O)N(CCCN5CCS(=O)(=O)CC5)C5CCNCC5)cc4)[nH]c3nc2=O)cc1 [Compound 855] | + (a “+” indicates that the compound has an MIC value of 16 micrograms/ml or less)
14 | N=C(N)NCCCNCc1ccc(-n2cc3cc(-c4cccc(S(=O)(=O)N(CCn5nccc5N)C5CCNCC5)c4)[nH]c3nc2=O)cc1 [Compound 1262] | − (a “−” indicates that the compound has an MIC value greater than 16 micrograms/ml)
15 | N=C(N)NCCCNCc1ccc(-c2cn3cc(-c4ccc(C(=O)NCCO)cc4)[nH]c3nc2=O)cc1 [Compound 828] | + (a “+” indicates that the compound has an MIC value of 16 micrograms/ml or less)
16 | N=C(N)NCCCNCc1ccc(-n2cc3cc(-c4cc(C(=O)Nc5ccc(F)cn5)cc(N5CCNCC5)c4)[nH]c3nc2=O)cc1 [Compound 994] | + (a “+” indicates that the compound has an MIC value of 16 micrograms/ml or less)
17 | N=C(N)NCCCNC(=O)c1ccc(-n2cc3cc(CCNC4CNC4)[nH]c3nc2=O)cc1 [Compound 1408] | − (a “−” indicates that the compound has an MIC value greater than 16 micrograms/ml)
18 | N=C(N)NCCCNC(c1ccc(-n2cc3cc(-c4ccc(S(=O)(=O)NC5CCNCC5)cc4)[nH]c3nc2=O)cc1)C(F)(F)F (centres unmarked) [Compound 1015] | + (a “+” indicates that the compound has an MIC value of 16 micrograms/ml or less)
19 | N=C(N)NCCCNCc1ccc(-n2cc3cc(-c4ccc(S(=O)(=O)N(CC5(CO)CC5)C5CCNCC5)cc4)[nH]c3nc2=O)cc1 [Compound 958] | + (a “+” indicates that the compound has an MIC value of 16 micrograms/ml or less)
20 | CC(C)(CN)COc1cccc(-c2cc3cn(-c4ccc(CNCCCNC(=N)N)c(F)c4)c(=O)nc3[nH]2)c1 [Compound 1361] | + (a “+” indicates that the compound has an MIC value of 16 micrograms/ml or less)
21 | N=C(N)NCCC(NCc1ccc(-n2cc3cc(-c4cc(CCCCN)cc(OC(F)(F)F)c4)[nH]c3nc2=O)cc1)C(F)(F)F (centres unmarked) [Compound 2078a] | + (a “+” indicates that the compound has an MIC value of 16 micrograms/ml or less)
22 | NC(N)=NCCCNCc1ccc(-n2cc3cc(-c4cccc(S(=O)(=O)N(CCN5CCCC5)C5CCNCC5)c4)[nH]c3nc2=O)cc1 [Compound 1186] | + (a “+” indicates that the compound has an MIC value of 16 micrograms/ml or less)
23 | N=C(N)NCCCNCc1ccc(-n2cc3cc(-c4cccc(CCCCN)c4)[nH]c3nc2=O)cc1 [Compound 1380] | + (a “+” indicates that the compound has an MIC value of 16 micrograms/ml or less)
24 | CC(C)(CN)COc1cccc(-c2cc3cn(-c4ccc(CNCCCNC(=N)N)cc4)c(=O)nc3[nH]2)c1 [Compound 1327] | + (a “+” indicates that the compound has an MIC value of 16 micrograms/ml or less)
25 | NCCCNCc1ccc(-n2cc3cc(-c4ccc(S(=O)(=O)N(CC5COCCO5)C5CCCNC5)cc4)[nH]c3nc2=O)cc1 (centres unmarked) [Compound 846] | + (a “+” indicates that the compound has an MIC value of 16 micrograms/ml or less)
26 | COC(CN)COc1cccc(-c2cc3cn(-c4ccc(CNCCCNC(=N)N)cc4)c(=O)nc3[nH]2)c1 (centres unmarked) [Compound 1453] | + (a “+” indicates that the compound has an MIC value of 16 micrograms/ml or less)
27 | CC(CCN)c1cc(-c2cc3cn(-c4ccc(CNCCCNC(=N)N)cc4)c(=O)nc3[nH]2)ccc1Cl (centres unmarked) [Compound 2093a] | + (a “+” indicates that the compound has an MIC value of 16 micrograms/ml or less)
28 | Cc1cc(C)n2nc(CCCN(C3CCNCC3)S(=O)(=O)c3ccc(-c4cc5cn(-c6ccc(CNCCCNC(=N)N)cc6)c(=O)nc5[nH]4)cc3)nc2n1 [Compound 986] | − (a “−” indicates that the compound has an MIC value greater than 16 micrograms/ml)

Same assay, conditions: Escherichia coli, ATCC25922, Escherichia coli strain ATCC25922, microdilution; read-out: E. coli ATCC25922 MIC

Row | MIC [µg/mL] | Structure (SMILES)
29 | < 16 | N=C(N)NCCCNCc1ccc(-c2cn3cc(-c4ccc(S(=O)(=O)N5CCNCC5)cc4)[nH]c3nc2=O)cc1 [Compound 788]
30 | < 16 | NCCCNCc1ccc(-c2cn3cc(-c4ccc(C(=O)N5CCNCC5)cc4)[nH]c3nc2=O)cc1 [Compound 682, 6-{4-[(3-Amino-propylamino)-methyl]-phenyl}-2-[4-(piperazine-1-carbonyl)-phenyl]-1H-imidazo[1,2-a]pyrimidin-7-one]
31 | < 16 | NCCCNCc1ccc(-n2cc3cc(-c4ccc(S(=O)(=O)N(C5CCNCC5)C5CCOCC5)cc4)[nH]c3nc2=O)cc1 [Compound 726]
32 | > 16 | CN(C)Cc1cc2cn(-c3ccc(CNCCCN)cc3)c(=O)nc2[nH]1 [Compound 884]
33 | > 16 | NCCCCOc1ccc(-c2cn3cc(-c4ccc(C(=O)NC5CCNCC5)cc4)[nH]c3nc2=O)cc1 [Compound 829]
34 | > 16 | NCCCCCN1CC=C(n2cc3cc(-c4ccc(F)cc4)[nH]c3nc2=O)CC1 [Compound 508]
35 | > 16 | NCCCNC(=O)CCn1cc2cc(-c3ccc(S(=O)(=O)N[C@@H]4CCCNC4)cc3)[nH]c2nc1=O [Compound 1287]
36 | > 16 | NCCCN(CCCN)Cc1ccc(-n2cc3cc(-c4ccccc4C(F)(F)F)[nH]c3nc2=O)cc1F [Compound 318]
37 | > 16 | NCCCNCc1ccc(-n2cc3cc(-c4ccc(S(=O)(=O)N(CC5CCOCC5)C5CCCNC5)cc4)[nH]c3nc2=O)cc1 (centres unmarked) [Compound 830]
38 | < 16 | N=C(N)NCCCNCc1ccc(-n2cc3cc(-c4cccc(CN5CCNCC5)c4)[nH]c3nc2=O)cc1 [Compound 1233]
39 | < 16 | N=C(N)NCCCNC(=O)c1ccc(-n2cc3cc(C4CCCN(C(=N)N)C4)[nH]c3nc2=O)cc1 (centres unmarked) [Compound 1256]
40 | > 16 | NCCCc1cccc(-c2cc3cn(-c4ccc(C(N)=O)cc4)c(=O)nc3[nH]2)c1 [Compound 2056a]
41 | < 16 | N=C(N)NCCCNCc1ccc(-c2cn3cc(-c4ccc(C(=O)NC56CC7CC(CC(C7)C5)C6)cc4)[nH]c3nc2=O)cc1 [Compound 724]
42 | > 16 | N=C(N)NCCCCCn1cc2cc(-c3ccc(S(=O)(=O)NC4CCNCC4)cc3)[nH]c2nc1=O [Compound 887]
43 | < 16 | N=C(N)NCCCN(CCCN)Cc1ccc(-n2cc3cc(-c4ccc(C(=O)NC5CCNCC5)cc4)[nH]c3nc2=O)cc1 [Compound 217]
44 | < 16 | N=C(N)NCCCNCc1ccc(-n2cc3cc(C4C[C@@H](N)[C@@H](CO)O4)[nH]c3nc2=O)cc1 (some centres unmarked) [Compound 1245]
45 | > 16 | NCCCNCc1ccc(-n2cc3cc(CCC4CCCCC4)[nH]c3nc2=O)cc1 [Compound 609]
46 | > 16 | NCCCc1cccc(-c2cc3cn(-c4ccc(CN)cc4)c(=O)nc3[nH]2)c1 [Compound 2057a]
47 | > 16 | CC(C)NC(=O)CCc1cc2cn(-c3ccc(CNCCCN)cc3)c(=O)nc2[nH]1 [Compound 293]
48 | > 16 | N=C(N)NCCCNCc1ccc(-c2cn3cc(-c4ccc(C(=O)N5CCC(C(N)=O)C5)cc4)[nH]c3nc2=O)cc1 (centres unmarked) [Compound 692]
49 | > 16 | N=C(N)NCCCNCc1ccc(-c2cn3cc(-c4ccc(Br)cc4)[nH]c3nc2=O)cc1 [Compound 618]
50 | < 16 | N=C(N)NCCCNC(=O)c1ccc(-n2cc3cc(-c4cccc(OCCCN)c4)[nH]c3nc2=O)cc1 [Compound 1255]
